IC50 data for 13 compounds are collected here from US20120010241A1, “HSP90 INHIBITING INDAZOLE DERIVATIVES, COMPOSITIONS CONTAINING SAME AND USE THEREOF” (SANOFI, priority 2009, published 2012).

The structures appear in SMILES notation.

The subject of this assay is Her2 expression in SKBr3 cells. Kind of assay: phenotypic SKBr3/HER2 cell test (Her2 expression at the cell surface, flow cytometry). The assay is classed as cell-based. Conditions: Homo sapiens, SK-BR-3, incubation for 24 h, anti-Her2 antibody coupled to PE, FACS. The procedure: The cellular activity of the compounds can in particular be evaluated by means of the phenotypic “SKBr3/HER2” cell test described below:
The SKBr3 […] adenocarcinoma cells, overexpressing the Her2 tyrosine kinase receptor, originate from the ATCC (HTB-30) and are cultured in McCoy's 5A medium supplemented with 10% FBS and 1% L-glutamine.
The cells are seeded in 12-well plates at a proportion of 125 000 cells per well in 1 ml of complete medium. The following day, the products are added at varying concentrations. After incubation for 24 h, the cells are trypsinized, washed with PBS and incubated with 100 ng of anti-Her2 antibody coupled to PE (phycoerythrin) (BD 340552) for 30 minutes at 4° C. in the dark. The fluorescence due to the expression of the Her2 receptor at the surface of the cells is then read using a FACS Calibur flow cytometer (Becton-Dickinson). The percentage inhibition of Her2 expression as a function of the concentrations of product tested is fitted by the nonlinear regression technique (XLfit, equation 205) in order to measure the IC50 for each product.
(In flow cytometry, cells or beads pass a laser one at a time.)

The term IC50 denotes the midpoint of a concentration-inhibition curve. Low readings indicate greater potency in that assay, high ones weaker potency in that assay. As for `NC(=O)c1ccc(-n2nc(C(F)(F)F)c3c(-c4nc5ccc(F)cc5[nH]4)cccc32)cc1N[C@H]1CC[C@H](O)CC1` [Example 22, 4-[4-(6-fluoro-1H-benzimidazol-2-yl)-3-trifluoromethylindazol-1-yl]-2-(trans-4-hydroxycyclohexylamino)benzamide], the concentration for half-maximal inhibition (IC50) was in the range of 1000 to 10000 nM.
For `Cc1nn(-c2cnc(C(N)=O)c(N[C@H]3CC[C@H](O)CC3)c2)c2cccc(-c3cnc4ccccc4c3)c12` [Example 16, 3-(trans-4-hydroxycyclohexylamino)-5-(3-methyl-4-quinolin-3-ylindazol-1-yl)pyridine-2-carboxamide] the value was under 1000 nM.
Next, `Cc1nn(-c2ccc(C(N)=O)c(NCC(C)(C)O)c2)c2cccc(-c3nc4ccc(F)cc4[nH]3)c12` [Example 13, 4-[4-(6-fluoro-1H-benzimidazol-2-yl)-3-methylindazol-1-yl]-2-(2-hydroxy-2-methylpropylamino)benzamide]: under 1000 nM.
In the case of `Cc1nn(-c2ccc(C(N)=O)c(NC[C@H]3C[C@@H]4CC[C@H]3O4)c2)c2cccc(-c3cnc4ccccc4c3)c12` (single isomer, unassigned) [Example 19, 4-(3-methyl-4-quinolin-3-ylindazol-1-yl)-2-{[exo-1-(7-oxabicyclo[2.2.1]hept-2-yl)methyl]amino}benzamide], the IC50 is under 1000 nM.
Next, `Cc1nn(-c2ccc(C(N)=O)c(NC[C@@H]3C[C@@H]4CC[C@H]3O4)c2)c2cccc(-c3cnc4ccccc4c3)c12` (single isomer, unassigned) [Example 20, 4-(3-methyl-4-quinolin-3-ylindazol-1-yl)-2-{[endo-1-(7-oxabicyclo[2.2.1]hept-2-yl)methyl]amino}benzamide]: under 1000 nM; `Cc1nn(-c2cnc(C(N)=O)c(NC3CC(C)(C)N(C)C(C)(C)C3)c2)c2cccc(-c3cnc4ccccc4c3)c12` [Example 17]: under 1000 nM.
Take `NC(=O)c1ccc(-n2ncc3c(-c4cnc5ccccc5c4)cccc32)cc1N[C@H]1CC[C@H](O)CC1` [Example 24, 2-(trans-4-hydroxycyclohexylamino)-4-(4-quinolin-3-ylindazol-1-yl)benzamide]: the IC50 was under 1000 nM.
For `NC(=O)c1ccc(-n2ncc3c(-c4cnc5ccccc5c4)cccc32)cc1` [Example 25, 4-(4-quinolin-3-ylindazol-1-yl)benzamide] the value was 10000 to 100000 nM; for `NC(=O)c1ccc(-n2nc(C(F)(F)F)c3c(-c4cnc5ccccc5c4)cccc32)cc1N[C@H]1CC[C@H](O)CC1` [Example 21, 2-(trans-4-hydroxycyclohexylamino)-4-(4-quinolin-3-trifluoromethylindazol-1-yl)benzamide], under 1000 nM; for `NC(=O)c1ncc(-n2nc(Cl)c3c(-c4cnc5ccccc5c4)cccc32)cc1N[C@H]1CC[C@H](O)CC1` [Example 26, 5-(3-chloro-4-quinolin-3-ylindazol-1-yl)-3-(trans-4-hydroxycyclohexylamino)pyridine-2-carboxamide], under 1000 nM.
Next, `Cc1nn(-c2ccc(C(N)=O)c(NCCF)c2)c2cccc(-c3cnc4ccccc4c3)c12` [Example 8, 2-(2-fluoroethylamino)-4-(3-methyl-4-quinolin-3-ylindazol-1-yl)benzamide]: under 1000 nM; `Cc1nn(-c2cnc(C(N)=O)c(NCC(C)(C)O)c2)c2cccc(-c3cnc4ccccc4c3)c12` [Example 9, 3-(2-hydroxy-2-methylpropylamino)-5-(3-methyl-4-quinolin-3-ylindazol-1-yl)pyridine-2-carboxamide]: under 1000 nM; `Cc1nn(-c2ccc(C(N)=O)c(NCCC3(O)CCN(C)CC3)c2)c2cccc(-c3cnc4ccccc4c3)c12` [Example 4, 2-[2-(4-hydroxy-1-methylpiperidin-4-yl)ethylamino]-4-(3-methyl-4-quinolin-3-ylindazol-1-yl)benzamide]: under 1000 nM.
